Activity calls are given as the source filed them. The rule behind the calls is not given here.
Assays:
[1] = Volume of distribution at steady state in dog at 0.3 mg/kg, iv administered as infusion for 15 mins by HPLC-MS/MS analysis; type: ADME, organism-based, Canis lupus familiaris; conditions: in vivo, read-out: Vdss
[2] = (§1) Anti-inflammatory activity in human LL29 cells assessed as reduction in NECA-induced IL6 level after 24 hrs by ELISA; type: functional, cell-based
Homo sapiens = species on record: Homo sapiens; experiment: as §1; type: functional, cell-based
[3] = MRT in rat at 1 mg/kg, po for 15 mins by HPLC-MS/MS analysis; type: ADME, organism-based; conditions: in vivo
Adenosine receptor A1 [4] = molecular target: T1, Adenosine receptor A1 (Homo sapiens, UniProt P30542); experiment: Displacement of [3H]DPCPX from human A1 adenosine receptor expressed in CHO cell membranes after 60 mins by radioligand displacement assay
T1 sequence (P30542 whole entry): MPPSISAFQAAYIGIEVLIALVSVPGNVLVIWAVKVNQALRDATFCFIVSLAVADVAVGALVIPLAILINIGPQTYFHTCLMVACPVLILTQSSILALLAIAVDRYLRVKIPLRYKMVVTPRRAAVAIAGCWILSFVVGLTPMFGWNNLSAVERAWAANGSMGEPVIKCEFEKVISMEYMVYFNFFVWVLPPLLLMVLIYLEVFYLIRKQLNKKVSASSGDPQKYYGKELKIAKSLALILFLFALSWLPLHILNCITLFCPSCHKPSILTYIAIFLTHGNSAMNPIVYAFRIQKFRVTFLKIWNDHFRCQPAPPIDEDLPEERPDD

[5] = Dose normalized Cmax in mouse at 1 mg/kg, iv administered as bolus dose by HPLC-MS/MS analysis; type: ADME, organism-based; conditions: in vivo
Adenosine receptor A3 = molecular target: T2, Adenosine receptor A3 (Homo sapiens, UniProt P0DMS8); experiment: Displacement of [125I]AB-MECA from human A3 adenosine receptor expressed in HEK293 cell membranes after 120 mins by radioligand displacement assay
T2 sequence (P0DMS8 whole entry): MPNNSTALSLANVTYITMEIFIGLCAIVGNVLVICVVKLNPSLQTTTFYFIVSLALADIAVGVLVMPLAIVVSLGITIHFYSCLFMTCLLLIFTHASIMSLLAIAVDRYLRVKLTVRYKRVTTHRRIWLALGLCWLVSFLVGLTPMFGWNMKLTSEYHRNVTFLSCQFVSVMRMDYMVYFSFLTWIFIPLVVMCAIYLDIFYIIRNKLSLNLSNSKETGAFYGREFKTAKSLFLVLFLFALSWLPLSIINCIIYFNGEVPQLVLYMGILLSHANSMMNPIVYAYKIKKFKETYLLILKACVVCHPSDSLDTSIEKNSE

[6] = Dose normalized AUC in mouse at 0.3 mg/kg, iv administered as bolus dose by HPLC-MS/MS analysis; type: ADME, organism-based; conditions: in vivo
[7] = Partition coefficient, log P of the compound; type: physicochemical; conditions: octanol/water
Cytochrome P450 3A4 = Cytochrome P450 3A4 (Homo sapiens, UniProt P08684); experiment: Inhibition of CYP3A4 in human liver microsomes using midazolam as substrate preincubated for 30 mins followed by substrate addition measured after 10 mins in presence of NADPH by LC-MS/MS analysis; type: ADME
[8] = Blood clearance in human by measuring intrinsic clearance in human hepatocytes by MS/MS analysis; type: ADME, cell-based
[9] = Clearance in dog blood at 0.3 mg/kg, iv administered as bolus dose by HPLC-MS/MS analysis; type: ADME, organism-based, Canis lupus familiaris
[10] = Clearance in dog plasma at 0.3 mg/kg, iv administered as bolus dose by HPLC-MS/MS analysis; type: ADME, organism-based, Canis lupus familiaris
[11] = Clearance in rat plasma at 0.3 mg/kg, iv administered as bolus dose by HPLC-MS/MS analysis; type: ADME, organism-based
Adenosine receptor A2b = molecular target: T3, Adenosine receptor A2b (Homo sapiens, UniProt P29275); experiment: Antagonist activity at recombinant human A2B adenosine receptor expressed in CHO cells after 3 to 4 hrs by luciferase reporter gene assay; type: cell-based
T3 sequence (P29275 whole entry): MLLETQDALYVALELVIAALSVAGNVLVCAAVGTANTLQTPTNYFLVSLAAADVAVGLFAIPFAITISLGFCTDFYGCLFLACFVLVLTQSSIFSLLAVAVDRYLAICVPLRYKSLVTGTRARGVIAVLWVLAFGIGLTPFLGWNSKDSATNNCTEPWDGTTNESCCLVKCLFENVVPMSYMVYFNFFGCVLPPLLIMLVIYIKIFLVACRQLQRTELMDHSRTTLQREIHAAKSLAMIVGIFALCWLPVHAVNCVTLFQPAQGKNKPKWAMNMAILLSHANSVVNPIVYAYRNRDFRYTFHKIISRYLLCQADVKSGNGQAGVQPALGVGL

Cytochrome P450 2C9 = Cytochrome P450 2C9 (Homo sapiens, UniProt P11712); experiment: Inhibition of CYP2C9 in human liver microsomes using diclofenac as substrate after 15 mins in presence of NADPH by LC-MS/MS analysis; type: ADME
[12] = Half life in mouse at 1 mg/kg, iv administered as bolus dose by HPLC-MS/MS analysis; type: ADME, organism-based; conditions: in vivo
Adenosine receptor A1 [13] = molecular target: T1, Adenosine receptor A1; experiment: Antagonist activity at recombinant human A1 adenosine receptor expressed in CHO cells after 3 to 4 hrs by luciferase reporter gene assay; type: cell-based
Mus musculus [14] = experiment: Antifibrotic activity in FITC-induced C57BL/6J mouse pulmonary fibrosis model assessed as reduction in total number of cells in BALF at 100 to 500 mg/kg, bid administered via gavage pretreated for 45 mins before FITC addition until 72 hrs after FITC application; type: functional, organism-based
Mus musculus [15] = experiment: Antifibrotic activity in FITC-induced C57BL/6J mouse pulmonary fibrosis model assessed as reduction in osteopontin level in lung at 100 to 500 mg/kg, bid administered via gavage pretreated for 45 mins before FITC addition until 72 hrs after FITC application by ELISA; type: functional, organism-based
Mus musculus [16] = experiment: Antifibrotic activity in silica-induced C57BL/6J mouse pulmonary fibrosis model assessed as reduction in lung weight at 100 to 500 mg/kg, bid administered via gavage treated from day 1 until day 7 after silica application; type: functional, organism-based
[17] = Dose normalized AUC in mouse at 1 mg/kg, iv administered as bolus dose by HPLC-MS/MS analysis; type: ADME, organism-based; conditions: in vivo
[18] = Half life in dog at 0.3 mg/kg, iv administered as infusion for 15 mins by HPLC-MS/MS analysis; type: ADME, organism-based, Canis lupus familiaris; conditions: in vivo
Adenosine receptor A1 [19] = molecular target: T4, Adenosine receptor A1 (Mus musculus, UniProt Q60612); experiment: Antagonist activity at recombinant mouse A1 adenosine receptor expressed in CHO cells after 3 to 4 hrs by luciferase reporter gene assay; type: cell-based
T4 sequence (Q60612 whole entry): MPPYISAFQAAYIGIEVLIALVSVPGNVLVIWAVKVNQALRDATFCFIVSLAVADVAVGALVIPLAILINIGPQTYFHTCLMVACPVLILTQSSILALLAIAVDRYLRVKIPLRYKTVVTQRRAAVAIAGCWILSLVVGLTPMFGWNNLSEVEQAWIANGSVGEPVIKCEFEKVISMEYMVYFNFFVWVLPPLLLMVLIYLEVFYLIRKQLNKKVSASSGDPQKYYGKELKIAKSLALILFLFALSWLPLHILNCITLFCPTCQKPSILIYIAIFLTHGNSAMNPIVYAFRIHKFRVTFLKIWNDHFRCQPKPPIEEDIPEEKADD

[20] = MRT in mouse at 1 mg/kg, iv administered as bolus dose by HPLC-MS/MS analysis; type: ADME, organism-based; conditions: in vivo

Cytochrome P450 3A4, sequence (P08684 whole entry): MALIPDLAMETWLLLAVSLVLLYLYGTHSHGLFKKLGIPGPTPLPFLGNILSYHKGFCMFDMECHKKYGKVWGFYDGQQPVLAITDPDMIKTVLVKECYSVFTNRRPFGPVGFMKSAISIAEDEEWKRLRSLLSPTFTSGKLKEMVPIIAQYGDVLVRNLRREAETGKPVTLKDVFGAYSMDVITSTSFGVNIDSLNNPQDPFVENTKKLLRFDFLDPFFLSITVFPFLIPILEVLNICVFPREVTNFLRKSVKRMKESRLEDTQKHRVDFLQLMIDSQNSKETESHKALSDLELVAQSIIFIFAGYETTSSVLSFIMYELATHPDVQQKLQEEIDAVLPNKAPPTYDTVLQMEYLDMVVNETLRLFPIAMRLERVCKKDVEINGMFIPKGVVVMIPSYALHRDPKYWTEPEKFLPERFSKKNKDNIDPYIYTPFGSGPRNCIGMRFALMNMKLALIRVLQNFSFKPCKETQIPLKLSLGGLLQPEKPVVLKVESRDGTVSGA
Cytochrome P450 2C9, sequence (P11712 whole entry): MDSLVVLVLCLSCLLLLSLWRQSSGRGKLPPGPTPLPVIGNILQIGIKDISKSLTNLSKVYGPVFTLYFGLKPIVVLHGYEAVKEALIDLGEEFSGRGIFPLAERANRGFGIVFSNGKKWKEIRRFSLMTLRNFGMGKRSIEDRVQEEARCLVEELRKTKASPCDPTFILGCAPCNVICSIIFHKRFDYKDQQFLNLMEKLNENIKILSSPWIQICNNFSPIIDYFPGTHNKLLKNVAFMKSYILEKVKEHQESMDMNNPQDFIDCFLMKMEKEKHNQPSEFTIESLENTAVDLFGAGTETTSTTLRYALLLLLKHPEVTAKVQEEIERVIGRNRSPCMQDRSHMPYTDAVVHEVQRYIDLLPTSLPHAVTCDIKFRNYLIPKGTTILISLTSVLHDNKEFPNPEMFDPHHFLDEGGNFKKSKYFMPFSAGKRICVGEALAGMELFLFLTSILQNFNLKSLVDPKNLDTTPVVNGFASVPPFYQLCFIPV

Vd [1]: 2 L/kg
IC50 [2]: 0.185 µM
MRT [3]: 2 h
Ki (Adenosine receptor A1 [4]): > 1 µM
Cmax/dose [5]: 1.2 kg/L
Ki (Adenosine receptor A3): > 10 µM
AUC/dose [6]: 1.6 kg·h/L
logP [7]: 1.99
IC50 (Cytochrome P450 3A4): > 20 µM
CLhep predicted [8]: < 3.5 mL/min/kg
clearance [9]: 7.33 mL/min/kg
clearance [10]: 6.67 mL/min/kg
clearance [11]: 18.3 mL/min/kg
IC50 (Adenosine receptor A2b): 0.066 µM
IC50 (Cytochrome P450 2C9): > 20 µM
half-life [12]: 2.1 h
IC50 (Adenosine receptor A1 [13]): 1.3 µM
AUC/dose [17]: 1 kg·h/L
half-life [18]: 6.6 h
IC50 (Adenosine receptor A1 [19]): > 6.7 µM
MRT [20]: 1.2 h
SMILES: CCn1c(=O)c2c(C)c(C(=O)N3CCC(O)CC3)sc2n(CCC(F)(F)F)c1=O
Activity (Homo sapiens): Dose-dependent effect
Activity (Mus musculus [14]): Active
Activity (Mus musculus [15]): inactive
Activity (Mus musculus [16]): Active
